Data taken from the CheMixHub viscosity set.
“And” between values parts separate entries of the source, which are not always exact repeats. Equal values may be shown once.

CCCCn1cc[n+](C)c1.O=S(=O)([N-]S(=O)(=O)C(F)(F)F)C(F)(F)F
Details | viscosity
293.15 K, 100 kPa | 61.47 mPa·s
293.15 K, 101 kPa | 64.6 mPa·s and 62.91 mPa·s and 65.11 mPa·s
293.15 K, 101.3 kPa | 63.1 mPa·s
293.3 K, 100 kPa | 62.66 mPa·s
293.61 K, 100 kPa | 61.82 mPa·s
293.91 K, 100 kPa | 60.98 mPa·s
294.21 K, 100 kPa | 60.17 mPa·s
294.52 K, 100 kPa | 59.36 mPa·s
294.82 K, 100 kPa | 58.58 mPa·s
295.12 K, 100 kPa | 57.8 mPa·s
295.42 K, 100 kPa | 57.04 mPa·s
295.73 K, 100 kPa | 56.29 mPa·s
296.03 K, 100 kPa | 55.56 mPa·s
296.33 K, 100 kPa | 54.84 mPa·s
296.64 K, 100 kPa | 54.13 mPa·s
296.94 K, 100 kPa | 53.43 mPa·s
297.24 K, 100 kPa | 52.75 mPa·s
297.55 K, 100 kPa | 52.07 mPa·s
297.85 K, 100 kPa | 51.41 mPa·s
298 K, 100 kPa | 49.74 mPa·s
298 K, 101 kPa | 50.4 mPa·s
298.15 K, 101 kPa | 50.29 mPa·s and 51.73 mPa·s and 45.3 mPa·s
298.15 K, 101.3 kPa | 50.53 mPa·s
298.45 K, 100 kPa | 50.12 mPa·s
298.76 K, 100 kPa | 49.49 mPa·s
299.06 K, 100 kPa | 48.87 mPa·s
299.36 K, 100 kPa | 48.26 mPa·s
299.67 K, 100 kPa | 47.66 mPa·s
299.97 K, 100 kPa | 47.08 mPa·s
300.27 K, 100 kPa | 46.5 mPa·s
300.58 K, 100 kPa | 45.93 mPa·s
300.88 K, 100 kPa | 45.37 mPa·s
301.18 K, 100 kPa | 44.82 mPa·s
301.48 K, 100 kPa | 44.27 mPa·s
301.79 K, 100 kPa | 43.74 mPa·s
302.09 K, 100 kPa | 43.22 mPa·s
302.39 K, 100 kPa | 42.7 mPa·s
302.7 K, 100 kPa | 42.19 mPa·s
303 K, 100 kPa | 41.69 mPa·s
303.15 K, 100 kPa | 40.54 mPa·s and 39.95 mPa·s
303.15 K, 101 kPa | 40.77 mPa·s and 41.8 mPa·s
303.61 K, 100 kPa | 40.71 mPa·s
303.91 K, 100 kPa | 40.23 mPa·s
304.21 K, 100 kPa | 39.76 mPa·s
304.52 K, 100 kPa | 39.3 mPa·s
304.82 K, 100 kPa | 38.85 mPa·s
305.12 K, 100 kPa | 38.4 mPa·s
305.42 K, 100 kPa | 37.96 mPa·s
305.73 K, 100 kPa | 37.52 mPa·s
306.03 K, 100 kPa | 37.09 mPa·s
306.33 K, 100 kPa | 36.67 mPa·s
306.64 K, 100 kPa | 36.25 mPa·s
306.94 K, 100 kPa | 35.85 mPa·s
307.24 K, 100 kPa | 35.44 mPa·s
307.55 K, 100 kPa | 35.04 mPa·s
307.85 K, 100 kPa | 34.65 mPa·s
308.15 K, 101 kPa | 34.3 mPa·s
308.15 K, 101.3 kPa | 33.95 mPa·s
308.76 K, 100 kPa | 33.51 mPa·s
309.06 K, 100 kPa | 33.14 mPa·s
309.36 K, 100 kPa | 32.78 mPa·s
309.67 K, 100 kPa | 32.42 mPa·s
309.97 K, 100 kPa | 32.07 mPa·s
310.27 K, 100 kPa | 31.72 mPa·s
310.58 K, 100 kPa | 31.38 mPa·s
310.88 K, 100 kPa | 31.04 mPa·s
311.18 K, 100 kPa | 30.71 mPa·s
311.48 K, 100 kPa | 30.38 mPa·s
311.79 K, 100 kPa | 30.05 mPa·s
312.09 K, 100 kPa | 29.73 mPa·s
312.39 K, 100 kPa | 29.42 mPa·s
312.7 K, 100 kPa | 29.11 mPa·s
313 K, 100 kPa | 28.8 mPa·s
313.15 K, 100 kPa | 28 mPa·s
313.15 K, 101 kPa | 28.06 mPa·s
313.15 K, 101.3 kPa | 28.39 mPa·s
313.2 K, 101.33 kPa | 27.26 mPa·s
313.61 K, 100 kPa | 28.2 mPa·s
313.91 K, 100 kPa | 27.91 mPa·s
314.21 K, 100 kPa | 27.62 mPa·s
314.52 K, 100 kPa | 27.33 mPa·s
314.82 K, 100 kPa | 27.05 mPa·s
315.12 K, 100 kPa | 26.77 mPa·s
315.42 K, 100 kPa | 26.49 mPa·s
315.73 K, 100 kPa | 26.22 mPa·s
316.03 K, 100 kPa | 25.95 mPa·s
316.33 K, 100 kPa | 25.69 mPa·s
316.64 K, 100 kPa | 25.43 mPa·s
316.94 K, 100 kPa | 25.17 mPa·s
317.24 K, 100 kPa | 24.92 mPa·s
317.55 K, 100 kPa | 24.67 mPa·s
318.15 K, 100 kPa | 23.75 mPa·s and 24.18 mPa·s
318.76 K, 100 kPa | 23.7 mPa·s
319.06 K, 100 kPa | 23.47 mPa·s
319.36 K, 100 kPa | 23.23 mPa·s
319.67 K, 100 kPa | 23 mPa·s
319.97 K, 100 kPa | 22.78 mPa·s
320.27 K, 100 kPa | 22.56 mPa·s
320.58 K, 100 kPa | 22.34 mPa·s
320.88 K, 100 kPa | 22.12 mPa·s
321.18 K, 100 kPa | 21.9 mPa·s
321.48 K, 100 kPa | 21.69 mPa·s
321.79 K, 100 kPa | 21.48 mPa·s
322.09 K, 100 kPa | 21.28 mPa·s
322.39 K, 100 kPa | 21.07 mPa·s

CCCC#N
Details | viscosity [mPa·s]
298.15 K, 101 kPa | 0.502
